Earlier results on 4 compounds are cited in patent US7892523B2, “Cosmetic process for the treatment of the skin with sun-protection products and sun-protection products combination” (Coty B.V., priority 2004, dated 2011).

The conditions of the series: known RPFs of standard antioxidants / usual formulations.
For `CC(=O)OC/C=C(C)/C=C/C=C(C)/C=C/C1=C(C)CCCC1(C)C` [all-trans-retinol acetate], the “radical protection factor (RPF)” value is recorded as 196 ×10^14 radicals/mg.

Regarding `Cc1c(C)c2c(c(C)c1O)CCC(C)(CCCC(C)CCCC(C)CCCC(C)C)O2` (racemic) [DL-α-tocopherol], the “radical protection factor (RPF)” value is on record as 41,200 ×10^14 radicals/mg.

As to `CC1=C(/C=C/C(C)=C/C=C/C(C)=C/CO)C(C)(C)CCC1` [all-trans-retinol], the “radical protection factor (RPF)” value was 827 ×10^14 radicals/mg.

In the case of `CC(=O)Oc1c(C)c(C)c2c(c1C)CCC(C)(CCC[C@H](C)CCC[C@H](C)CCCC(C)C)O2` (stereo partly drawn) [α-tocopherol acetate], the “radical protection factor (RPF)” value is given as 48 ×10^14 radicals/mg.
